Assay results taken from patent US10974081B2, “Treatment and prevention of sleep disorders” (Purdue Pharma L.P., priority 2016, dated 2021).
Values joined by “and” are separate entries in the source; they are usually repeats but may differ in a detail not shown here. Equal values may be shown once. Read-outs that look alike come from different tables or passages of the source.

Legend:
[1] = test system: subjects with insomnia disorder; experiment: Phase 1 crossover polysomnography (PSG) study in subjects with insomnia disorder; format: in vivo, human
[2] = In vivo clearance of radiolabeled Compound (1D), rats; settings: within 48 hours of oral dosing
[3] = Plasma concentration (pharmacokinetics) after single oral dose in humans; format: in vivo, human; settings: for half-life / Tmax / AUC(0-t) / Cmax / AUC(0-inf): male, human, plasma; for half-life / Tmax: po; for AUC(0-inf): read-out: AUCinf Mean
Protocol: The plasma concentration of Compound (1D) was evaluated in humans for up to 36 hours after administration of a single oral dose of 3, 10, or 30 mg of Compound (1D) in the form of a methyl cellulose suspension. Four healthy male subjects were administered each dose.
FIG. 19A provides a plot of the human plasma concentration of Compound (1D) on a linear scale versus linear time in hours at each dose: 3, 10, and 30 mg. FIG. 19B provides the same results in a plot of human plasma concentration of Compound (1D) on a logarithmic scale versus linear time at each dose. The target plasma exposure indicated in FIG. 19A relates to the effective dose in 80% of subjects from rat modeling results.

[4] = In vivo bioavailability after oral dosing; settings: male, Sprague-Dawley [Crl:CD(SD)], rat, plasma; 1 mg/kg oral, non-fasted; mean of multiple determinations
[5] = Change from Baseline, 10 mg oral
[6] = Compound (1D) versus placebo, 10 mg oral
[7] = Treatment Period 1 Night 1, 10 mg oral
[8] = Treatment Period 1 Night 2, 10 mg oral
[9] = Treatment Period 2 Night 1, 10 mg oral
[10] = Treatment Period 2 Night 2, 10 mg oral
[11] = Treatment Period Mean, 10 mg oral

O=C(O)c1nc2ccccc2n([C@H]2C[C@H]3CCC[C@@H](C2)N3C2CC3CCCC(C3)C2)c1=O (some centres unmarked) [Compound (1D)]
Latency to Persistent Sleep (LPS) LSM (STDE) [1, 5]: −32.33 (4.580) Minutes | Latency to Persistent Sleep (LPS) Maximum [1, 5]: 8.75 min | Latency to Persistent Sleep (LPS) Mean (SD) [1, 5]: −29.918 (23.3435) Minutes | Latency to Persistent Sleep (LPS) Median [1, 5]: -27.250 min | Latency to Persistent Sleep (LPS) Minimum [1, 5]: -87.75 min | Total Sleep Time (TST) LSM (STDE) [1, 5]: 69.44 (12.870) Minutes | Total Sleep Time (TST) Maximum [1, 5]: 198.00 min | Total Sleep Time (TST) Mean (SD) [1, 5]: 69.955 (49.2950) Minutes | Total Sleep Time (TST) Median [1, 5]: 73.750 min | Total Sleep Time (TST) Minimum [1, 5]: -59.80 min | Wake After Sleep Onset (WASO) LSM (STDE) [1, 5]: −50.04 (5.990) Minutes | Wake After Sleep Onset (WASO) Maximum [1, 5]: 29.50 min | Wake After Sleep Onset (WASO) Mean (SD) [1, 5]: −50.545 (42.1544) Minutes | Wake After Sleep Onset (WASO) Median [1, 5]: -47.250 min | Wake After Sleep Onset (WASO) Minimum [1, 5]: -185.50 min | Latency to Persistent Sleep (LPS) Drug Effect Difference (LSM (STDE)) [1, 6]: −17.44 (6.292) Minutes | Total Sleep Time (TST) Drug Effect Difference (LSM (STDE)) [1, 6]: 56.69 (17.665) Minutes | Wake After Sleep Onset (WASO) Drug Effect Difference (LSM (STDE)) [1, 6]: −38.46 (8.222) Minutes | Latency to Persistent Sleep LSM Change from Baseline (STDE) ([1]; Table 4 summary, 10 mg oral): −32.3 (4.6) min. | Latency to Persistent Sleep Treatment Period Mean (SD) ([1]; Table 4 summary, 10 mg oral): 18.8 (15.6)) min. | Latency to Persistent Sleep LSM Effect Difference (STDE) ([1]; Table 4 summary, versus placebo, 10 mg oral): −17.4 (6.3) min. | Wake After Sleep Onset LSM Change from Baseline (STDE) ([1]; Table 6 summary, 10 mg oral): −50.0 (6.0) min. | Wake After Sleep Onset Treatment Period Mean (SD) ([1]; Table 6 summary, 10 mg oral): 26.1 (16.2) min. | Wake After Sleep Onset LSM Effect Difference (STDE) ([1]; Table 6 summary, versus placebo, 10 mg oral): −38.5 (8.2) min. | Total Sleep Time LSM Change from Baseline (STDE) ([1]; Table 8 summary, 10 mg oral): 69.4 (12.9) min. | Total Sleep Time Treatment Period Mean (SD) ([1]; Table 8 summary, 10 mg oral): 432.0 (35.1) min. | Total Sleep Time LSM Effect Difference (STDE) ([1]; Table 8 summary, versus placebo, 10 mg oral): 56.7 min. and 56.7 (17.7) min. | Latency to Persistent Sleep (LPS) Maximum [1, 7]: 58.0 min | Latency to Persistent Sleep (LPS) Mean (SD) [1, 7]: 25.68 (15.691) Minutes | Latency to Persistent Sleep (LPS) Median [1, 7]: 24.50 min | Latency to Persistent Sleep (LPS) Minimum [1, 7]: 6.0 min | Total Sleep Time (TST) Maximum [1, 7]: 469.0 min | Total Sleep Time (TST) Mean (SD) [1, 7]: 424.00 (32.530) Minutes | Total Sleep Time (TST) Median [1, 7]: 419.50 min | Total Sleep Time (TST) Minimum [1, 7]: 358.5 min | Wake After Sleep Onset (WASO) Maximum [1, 7]: 111.5 min | Wake After Sleep Onset (WASO) Mean (SD) [1, 7]: 35.95 (29.815) Minutes | Wake After Sleep Onset (WASO) Median [1, 7]: 29.50 min | Wake After Sleep Onset (WASO) Minimum [1, 7]: 7.5 min | Latency to Persistent Sleep (LPS) Maximum [1, 8]: 105.0 min | Latency to Persistent Sleep (LPS) Mean (SD) [1, 8]: 20.73 (29.755) Minutes | Latency to Persistent Sleep (LPS) Median [1, 8]: 15.00 min | Latency to Persistent Sleep (LPS) Minimum [1, 8]: 0.0 min | Total Sleep Time (TST) Maximum [1, 8]: 459.0 min | Total Sleep Time (TST) Mean (SD) [1, 8]: 439.82 (19.572) Minutes | Total Sleep Time (TST) Median [1, 8]: 443.00 min | Total Sleep Time (TST) Minimum [1, 8]: 387.5 min | Wake After Sleep Onset (WASO) Maximum [1, 8]: 52.0 min | Wake After Sleep Onset (WASO) Mean (SD) [1, 8]: 25.68 (12.515) Minutes | Wake After Sleep Onset (WASO) Median [1, 8]: 25.50 min | Wake After Sleep Onset (WASO) Minimum [1, 8]: 4.0 min | Latency to Persistent Sleep (LPS) Maximum [1, 9]: 46.0 min | Latency to Persistent Sleep (LPS) Mean (SD) [1, 9]: 12.75 (14.425) Minutes | Latency to Persistent Sleep (LPS) Median [1, 9]: 9.00 min | Latency to Persistent Sleep (LPS) Minimum [1, 9]: 0.0 min | Total Sleep Time (TST) Maximum [1, 9]: 458.5 min | Total Sleep Time (TST) Mean (SD) [1, 9]: 416.88 (101.558) Minutes | Total Sleep Time (TST) Median [1, 9]: 453.00 min | Total Sleep Time (TST) Minimum [1, 9]: 166.0 min | Wake After Sleep Onset (WASO) Maximum [1, 9]: 22.5 min | Wake After Sleep Onset (WASO) Mean (SD) [1, 9]: 15.63 (4.299) Minutes | Wake After Sleep Onset (WASO) Median [1, 9]: 15.75 min | Wake After Sleep Onset (WASO) Minimum [1, 9]: 9.5 min | Latency to Persistent Sleep (LPS) Maximum [1, 10]: 29.5 min | Latency to Persistent Sleep (LPS) Mean (SD) [1, 10]: 12.50 (9.350) Minutes | Latency to Persistent Sleep (LPS) Median [1, 10]: 11.50 min | Latency to Persistent Sleep (LPS) Minimum [1, 10]: 0.5 min | Total Sleep Time (TST) Maximum [1, 10]: 459.5 min | Total Sleep Time (TST) Mean (SD) [1, 10]: 447.50 (8.594) Minutes | Total Sleep Time (TST) Median [1, 10]: 450.25 min | Total Sleep Time (TST) Minimum [1, 10]: 436.0 min | Wake After Sleep Onset (WASO) Maximum [1, 10]: 38.5 min | Wake After Sleep Onset (WASO) Mean (SD) [1, 10]: 23.44 (8.946) Minutes | Wake After Sleep Onset (WASO) Median [1, 10]: 22.75 min | Wake After Sleep Onset (WASO) Minimum [1, 10]: 12.5 min | Latency to Persistent Sleep (LPS) LSM (STDE) [1, 11]: 18.14 (4.579) Minutes | Latency to Persistent Sleep (LPS) Maximum [1, 11]: 70.25 min | Latency to Persistent Sleep (LPS) Mean (SD) [1, 11]: 18.750 (15.6310) Minutes | Latency to Persistent Sleep (LPS) Median [1, 11]: 15.000 min | Latency to Persistent Sleep (LPS) Minimum [1, 11]: 2.00 min | Total Sleep Time (TST) LSM (STDE) [1, 11]: 431.09 (12.869) Minutes | Total Sleep Time (TST) Maximum [1, 11]: 464.00 min | Total Sleep Time (TST) Mean (SD) [1, 11]: 432.026 (35.1088) Minutes | Total Sleep Time (TST) Median [1, 11]: 443.500 min | Total Sleep Time (TST) Minimum [1, 11]: 309.00 min | Wake After Sleep Onset (WASO) LSM (STDE) [1, 11]: 25.28 (5.990) Minutes | Wake After Sleep Onset (WASO) Maximum [1, 11]: 51.75 min | Wake After Sleep Onset (WASO) Mean (SD) [1, 11]: 26.066 (16.2181) Minutes | Wake After Sleep Onset (WASO) Median [1, 11]: 22.250 min | Wake After Sleep Onset (WASO) Minimum [1, 11]: 11.00 min | Latency to Persistent Sleep LSM decrease effect ([1]; treatment group versus placebo): 17.4 min | Wake After Sleep Onset LSM decrease effect ([1]; treatment group versus placebo): 38.5 min | Average % Elimination, Fecal ([2]; Rat (female)): 27.9% | Average % Elimination, Fecal + Urinary ([2]; Rat (female)): 94.7% | Average % Elimination, Urinary ([2]; Rat (female)): 66.8% | Average % Elimination, Fecal ([2]; Rat (male)): 41.6% | Average % Elimination, Fecal + Urinary ([2]; Rat (male)): 96.0% | Average % Elimination, Urinary ([2]; Rat (male)): 54.4% | AUCinf Maximum ([3]; 3 mg single oral dose): 176 ng·h/mL | AUCinf Minimum ([3]; 3 mg single oral dose): 144 ng·h/mL | AUCt Maximum ([3]; 3 mg single oral dose): 168 ng·h/mL | AUCt Minimum ([3]; 3 mg single oral dose): 135 ng·h/mL | Cmax Maximum ([3]; 3 mg single oral dose): 34 ng/mL | Cmax Minimum ([3]; 3 mg single oral dose): 23 ng/mL | t1/2 Minimum ([3]; 3 mg single oral dose): 2.1 h | tmax Maximum ([3]; 3 mg single oral dose): 2.0 h | AUCinf Maximum ([3]; 10 mg single oral dose): 557 ng·h/mL | AUCinf Minimum ([3]; 10 mg single oral dose): 320 ng·h/mL | AUCt Maximum ([3]; 10 mg single oral dose): 550 ng·h/mL | AUCt Minimum ([3]; 10 mg single oral dose): 300 ng·h/mL | Cmax Maximum ([3]; 10 mg single oral dose): 98 ng/mL | Cmax Minimum ([3]; 10 mg single oral dose): 56 ng/mL | t1/2 Maximum ([3]; 10 mg single oral dose): 3.0 h | t1/2 Minimum ([3]; 10 mg single oral dose): 2.4 h | tmax Maximum ([3]; 10 mg single oral dose): 2.0 h | tmax Minimum ([3]; 10 mg single oral dose): 1.0 h | AUCinf Maximum ([3]; 30 mg single oral dose): 714 ng·h/mL | AUCinf Minimum ([3]; 30 mg single oral dose): 398 ng·h/mL | AUCt Maximum ([3]; 30 mg single oral dose): 708 ng·h/mL | AUCt Minimum ([3]; 30 mg single oral dose): 388 ng·h/mL | Cmax Maximum ([3]; 30 mg single oral dose): 106 ng/mL | Cmax Minimum ([3]; 30 mg single oral dose): 69 ng/mL | t1/2 Maximum ([3]; 30 mg single oral dose): 3.2 h | tmax Maximum ([3]; 30 mg single oral dose): 3.0 h | tmax Minimum ([3]; 30 mg single oral dose): 1.0 h | gastrointestinal absorption ([3]; across the three doses): rapid gastrointestinal absorption | half-life ([3]; 3 mg, 3 mg single oral dose, read-out: t1/2 Mean (converted)): 2.3 h | Tmax ([3]; 3 mg, 3 mg single oral dose, read-out: tmax Mean): 1.6 h | Tmax ([3]; 3 mg, 3 mg single oral dose, read-out: tmax Median): 1.5 h | half-life ([3]; 10 mg, 10 mg single oral dose, read-out: t1/2 Mean (converted)): 2.6 h | Tmax ([3]; 10 mg, 10 mg single oral dose, read-out: tmax Mean): 1.5 h | half-life ([3]; 30 mg, 30 mg single oral dose, read-out: t1/2 Mean (converted)): 2.8 h | Tmax ([3]; 30 mg, 30 mg single oral dose, read-out: tmax Mean): 1.8 h | Tmax ([3]; 30 mg, 30 mg single oral dose, read-out: tmax Median): 1.5 h | half-life ([3]; 30 mg, 3, 10 and 30 mg single oral doses, read-out: t1/2, minimum to maximum across the three doses): 2.1 to 3.2 h | Tmax ([3]; 30 mg, 3, 10 and 30 mg single oral doses, read-out: tmax, minimum to maximum across the three doses): 1 to 3 h | AUC(0-t) ([3]; 3 mg single oral dose): 154 ng·h/mL | Cmax ([3]; 3 mg single oral dose): 30 ng/mL | AUC(0-inf) ([3]; 3 mg single oral dose): 161 ng·h/mL | AUC(0-t) ([3]; 10 mg single oral dose): 438 ng·h/mL | Cmax ([3]; 10 mg single oral dose): 77 ng/mL | AUC(0-inf) ([3]; 10 mg single oral dose): 447 ng·h/mL | AUC(0-t) ([3]; 30 mg single oral dose): 505 ng·h/mL | Cmax ([3]; 30 mg single oral dose): 83 ng/mL | AUC(0-inf) ([3]; 30 mg single oral dose): 512 ng·h/mL

CNC(=O)Cn1c(=O)n(C2CCN([C@@H]3Cc4cccc5cccc3c45)CC2)c2ccccc21 [Compound W-212393]
bioavailability [4]: 2.1%
